Measured values reported in patent publication US7829305B2, “Method for monitoring the presence of biofilmforming microorganisms in paper industry” (Kemira Oyj, priority 2003, dated 2010).

Tested on: biofilms formed in a paper machine
Experiment: Inactivation of biofilms pre-grown in situ on sampler pegs; re-growth of new biofilm in the culturing step, safranin staining, visual evaluation
Type: cell-based
Details: for formation of new biofilm during the culturing step after treatment of the biofilm on the pegs: biofilm grown 68 h in clear filtrate silo of neutral fine paper machine at 52° C., treatment 1 to 50 ppm (active substance), stagnant 52° C., 2 h, culturing in R2-broth 250 rpm, 52° C., 17 h, safranin, evaluated visually
Source text: In this experiment one embodiment of the sampler device of the invention is used to illustrate the method of the invention for determining the effect of several anti-biofilm agents in inactivation of biofilms formed in a paper machine.
In this embodiment the sampler device comprises 12 stainless steel pegs fixed from one end on a stainless steel lid. The lid with the pegs is presented in FIG. 1 together with a treatment plate with 12 wells adapted to receive the pegs when the lid is placed on the plate. Suitably the lid was designed to be complementary with the commercially available 12-well polystyrene plates.
Three sampler lids are immersed in the clear filtrate silo of a neutral fine paper machine and allowed to hang immersed in said filtrate at the temperature of 52° C. of the process water, for 68 h. Then the samplers are removed, rinsed once with sterilized tap water, and each lid is placed on a 12-well treatment plate so that the pegs with biofilms formed in situ in the process on the surface thereof are immersed in the treatment solution within the wells, each peg in one well, while being supported at the one end by the lid.
Each well of a treatment plate contains 3.5 ml of sterilized tap water alone (reference samples) or 3.5 ml of sterilized tap water together with an anti-biofilm agent at a concentration of 1 to 50 ppm (active substance). The maximum volume of the wells is used so that almost the whole length of the pegs will be exposed to the anti-biofilm agents (the treatment solution). The tested anti-biofilm agents are BCDMH (Bromo-chloro-5,5-dimethyl hydantoine), a mixture of 5-chloro-2-methyl-4-isothiazolin-3-one and 2-methyl-4-isothiazolin-3-one, THPS (tetrakis(hydroxy-methyl)phosphomiumsulphate, DBNPA (2,2-dibromo-2-cyanoacetamide), glutar-aldehyde, MBT (methylene-bis(thiocyanate)), BNPD (bromo-2-nitropropan-1,3-diol), all of which are commercially available.
The anti-biofilm treatment step is carried out by incubating the plates with the lid thereon stagnant at 52° C. for 2 h. After the treatment step the lids are removed from the plate and rinsed three times with sterilized tap water and then placed on the 12-well culturing plates, which are similar to the treatment plates, but the wells contain 2.5 ml of sterile R2-broth (Difco). The culturing plates (plate+lid with the pegs immersed in the wells) are shaken at 250 rpm, at 52° C., for 17 h.
Finally, the pegs and growth media are removed from the wells, the wells are rinsed once with tap water and the microbes adhered on the walls of the wells are stained with safranin. The amount of biofilm produced by the microbes that survived alive through the treatment step with anti-biofilm agents is evaluated visually.

SMILES	formation of new biofilm during the culturing step after treatment of the biofilm on the pegs	lowest concentration of anti-biofilm agent achieving prevention of re-growth of new biofilm in the culturing step (treatment 2 h at 52° C., culturing 17 h at 52° C. in R2-broth, concentration as active substance)
CC1(C)C(=O)N(Br)C(=O)N1Cl [BCDMH, Bromo-chloro-5,5-dimethyl hydantoine]	no new biofilm is formed	–
O=[N+]([O-])C(Br)(CO)CO [BNPD, bromo-2-nitropropan-1,3-diol]	still capable to form new biofilm	–
N#CC(Br)(Br)C(N)=O [DBNPA, 2,2-dibromo-2-cyanoacetamide]	no new biofilm is formed	5 ppm
N#CSCSC#N [MBT, methylene-bis(thiocyanate)]	still capable to form new biofilm	–
O=S(=O)([O-])[O-].OC[P+](CO)(CO)CO.OC[P+](CO)(CO)CO [THPS, tetrakis(hydroxy-methyl)phosphomiumsulphate]	no new biofilm is formed	–
O=CCCCC=O [glutaraldehyde]	no new biofilm is formed	–
